Results: paper PMC5555576, “Selective small-chemical inhibitors of protein arginine methyltransferase 5 with anti-lung cancer activity” (PLoS ONE, 2017)

Tests used:
PRMT5 F225M = experiment: Radioactive methyltransferase assay, mutant PRMT5; assay type: biochemical, human; conditions: Phe225 to Met
Experimental: Methylation reactions were performed as previously described with a few modifications. Reaction mixtures (40 μl) containing 1.2 μg of PRMT5, 98 ng of PRMT1 or 98 ng of PRMT3; 2 μg of SmD3 or histones; 1 μCi of S-[methyl-^3H]adenosylmethionine (H^3-AdoMet; PerkinElmer); and 5 μM AdoMet were incubated in 50 mM Tris-HCl (pH 7.5)–1 mM EGTA–1 mM EDTA at 30°C for 2 h. Reaction mixtures (20 μl) were boiled in 5 μl of 5x SDS sample buffer and separated on a 15% polyacrylamide gel. Gels were fixed for 30 min in 40% methanol–10% acetic acid, incubated in 20 ml of Amplify (Amersham Life Science) for 10 min, dried and exposed to X-ray film at -80°C. IC50 was calculated by linear regression analysis of percent inhibition. The other half (20 μl) of each reaction mixture was spread onto DE81 chromatography paper discs (Whatman). The paper discs were washed 4 times with 50 mM NaHCO3 and dried. The amounts of methylated products were quantified by liquid scintillation.
The inhibitory activity of the compounds may stem from this interaction. To test this possibility, we conducted site-directed mutagenesis to mutate Phe225 in human PRMT5 (corresponding to Phe379 in the C. elegans PRMT5) to Met. The mutated PRMT5 was expressed in bacteria and purified by Ni-nitrilotriacetic acid (Ni-NTA) affinity chromatography (Fig 4A). The activity of the mutant PRMT5 was examined by the radioactive methyltransferase assay. […] The IC50 values for the mutant PRMT5 increased from 4.3 to 183 folds higher than those for the wild type PRMT5 (Fig 4D). […] The results also can help explain the specificity of the compounds to PRMT5. However, the contribution of this interaction to inhibition varies among the compounds. For example, compound C2 interacts with three amino acid residues (Lys451, Glu450, and Phe379) (Fig 3A) with the mutation of Phe to Met resulting in a 50-times higher IC50 (Fig 4C and 4D).
Fig 4 The conserved phenylalanine residue in PRMT5 is critical for inhibition by the five compounds. A, DS-PAGE of recombinant wild type (WT) and F225M mutant (MT) PRMT5. The gel was stained with Coomassie Brilliant Blue R250. A band corresponding to an unknown bacterial protein is indicated (star). B, The F225M mutation increased the methytransferase activity of PRMT5. In vitro methylation reactions were performed with recombinant wild type (lanes 2–4) or mutant (lanes 5–7) PRMT5 (1.2, 2.4 or 4.8 μg) and SmD3 (2 μg) as the substrate. C, The F225M mutation in PRMT5 decreased inhibition of arginine methylation by the compounds. The reaction mixture contained SmD3 (2 μg); wild type or mutant PRMT5 (1.2 μg); and 1, 10 or 100 μM compounds as indicated. D, The F225M mutation in PRMT5 […] of the compounds, as determined by quantitation and analysis of methylation assay results. TEXT PRINTED IN THE PICTURE: (D) C2: IC50 (μM) PRMT5: 0.1; IC50 (μM) PRMT5 F225M: 5.0 | (D) C5: IC50 (μM) PRMT5: 0.8; IC50 (μM) PRMT5 F225M: 3.5 | (D) C6: IC50 (μM) PRMT5: 0.5; IC50 (μM) PRMT5 F225M: 7.0 | (D) C9: IC50 (μM) PRMT5: 6.0; IC50 (μM) PRMT5 F225M: 45.0 | (D) C11: IC50 (μM) PRMT5: 0.3; IC50 (μM) PRMT5 F225M: 55.0

PRMT5 = target: T1, PRMT5 (Homo sapiens, UniProt O14744); experiment: Steady-state kinetic analysis of PRMT5 inhibition (time-dependent inhibition assay); assay type: biochemical
T1 construct: His6; made in house; host or cells: E. coli BL21(ED3) [sic]
T1 sequence (O14744 whole entry): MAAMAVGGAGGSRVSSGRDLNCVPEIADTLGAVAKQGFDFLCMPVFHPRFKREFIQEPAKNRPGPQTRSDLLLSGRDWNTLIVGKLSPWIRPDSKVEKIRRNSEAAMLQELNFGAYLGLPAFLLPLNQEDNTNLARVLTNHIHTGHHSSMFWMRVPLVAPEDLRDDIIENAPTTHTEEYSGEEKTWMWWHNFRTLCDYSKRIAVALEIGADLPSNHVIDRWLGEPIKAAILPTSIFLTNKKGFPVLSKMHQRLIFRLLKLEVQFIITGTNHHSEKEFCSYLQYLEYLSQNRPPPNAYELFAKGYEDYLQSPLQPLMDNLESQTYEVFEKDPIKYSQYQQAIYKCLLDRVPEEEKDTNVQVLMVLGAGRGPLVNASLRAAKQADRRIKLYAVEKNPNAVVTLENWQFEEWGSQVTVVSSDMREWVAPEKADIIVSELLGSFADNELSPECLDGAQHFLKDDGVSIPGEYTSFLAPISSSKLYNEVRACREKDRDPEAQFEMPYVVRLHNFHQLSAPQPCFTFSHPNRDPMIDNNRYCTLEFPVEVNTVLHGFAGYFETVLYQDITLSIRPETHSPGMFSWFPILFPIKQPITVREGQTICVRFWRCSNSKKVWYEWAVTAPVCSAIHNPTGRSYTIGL
Experimental: Different amounts of compound C2 or C5 were present in the final methylation reaction mixtures with 1.2 μg of PRMT5, 5 μM AdoMet, 2 μCi of H^3-AdoMet and various concentrations of SmD3. After a 10-, 20- or 30-min incubation at 30 °C or no incubation, the reaction mixtures were spread onto DE81 chromatography paper discs and the amounts of methylated products were quantified by liquid scintillation. Amounts (counts per minute [cpm]) of methylated products and incubation time (minutes) were plotted and reaction velocity (cpm per minute) was deduced.
To understand the mechanism of inhibition of identified compounds, we analyzed the kinetic pattern of inhibition using steady-state enzymatic measurements. The velocities of PRMT5 methylation of SmD3 were measured at several selected concentrations of compounds C2 and C5 over a range of SmD3 concentrations. Plotted in the double-reciprocal format with 1/velocity versus 1/[SmD3]
Fig 5 Steady-state kinetic analysis of PRMT5 inhibition by compounds C2 and C5. Double-reciprocal plot of reaction velocities (cpm per minute) versus concentrations of SmD3. Methylation reaction mixtures contained various concentrations of C2 (left) or C5 (right), various concentrations of SmD3, 1.2 μg of PRMT5 and 5 μM AdoMet. The mixtures were incubated for different times and the amounts of methylated products were quantified using DE81 paper and liquid scintillation. Reaction velocity was calculated as H^3 incorporation (cpm) into SmD3 per minute.

[1] = Toxicity observed after intraperitoneal injection; assay type: in vivo, BALB/c mice; conditions: 100 mg/kg
Experimental: The obtained 3 compounds (C5, C9, and C11) have characteristics of Lipinski’s rule-of-five, which defines four physicochemical parameters found in a set of active drugs which made them into phase II clinical trials. We chose one compound (C9) to analyze its pharmacokinetic parameters in the mouse. BALB/c mice were randomized and administrated compound C9 (dissolved in 5% DMSO and 0.5% Tween 80) at dosages of 25, 50 and 100 mg/kg by intraperitoneal (I.P.) injection. Mice were sacrificed and blood samples were collected at different time points after administration of compounds. The compound concentrations in plasma samples were measured (S1 Fig). […] However, we observed the high toxicity of the compound in the mouse at the dosage of 100 mg/kg.

| increase of IC50 for mutant PRMT5 over wild type PRMT5 (PRMT5 F225M) | mode of inhibition with regard to SAM (PRMT5) | mode of inhibition with regard to the SmD3 substrate (PRMT5; double-reciprocal plot) | Structure (SMILES) | toxicity in the mouse [1] |
| --- | --- | --- | --- | --- |
| 4.3 fold | not competitive inhibitors | competitive inhibitors | CCn1c(=O)[nH]c2cc(C(=O)Nc3ccc(OC)cc3)ccc2c1=O [Compound C5] |  |
|  |  |  | COc1ccc(Nc2ncnc3c2cnn3Cc2ccc(C)cc2)cc1 [Compound C9] | high toxicity |
